A short description of the series: Serum stability, anti-fungal activity after serum incubation by radial diffusion bioassay. The format is in vitro ADME, rat or human serum. To be noted: Activity in Serum t ½ (hr.). The procedure, abridged:
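Peptide at 1 mg/mL mixed with an equal volume of rat or human serum and held at 37° C. Samples taken at 0, 1, 2 and 4 h, extracted on C-18 solid phase, then analysed by HPLC, N-terminal sequencing and ESI/MS. Recovered peptides tested against C. albicans SLU-1 by radial diffusion.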

As a reminder, the half-life is the time needed for the level to fall by half in the phase considered. Low values mean fast loss, high ones slow loss.

H-SKVKWLIQLFHKK-NH2 [XMP.284] gave a half-life at 0.5 mg/mL of 14.6 h.

For the origin of these results see US6664231B1, “Anti-fungal peptides” (priority 1993, dated 2003).
